In US4064345A, “Cephalosporins derivatives 7-cyclized α-amino-3-heterothio” (Bristol-Myers Company, priority 1976, dated 1977):
≈ marks a conversion by molar mass, not a printed value. Entries after “also recorded” stand apart in the source; their conditions may differ.

Tests used:
S. pneumoniae A9585 = assay: Antibiotic spectrum in nutrient broth (MIC); type: cell-based; conditions: Streptococcus pneumoniae, 10^-3 dilution of overnight broth culture, 45% AAB + serum + 50% broth, BL-S1057/BL-S1058 adjusted for 80%/59% content of BL-S643
Text: (§1) Antibiotic Spectrum of BL-S643 Derivatives in Nutrient Broth
(§2) *45% AAB + serum + 50% broth listed above.
(§3) **Dilution of overnight broth
(§4) ^(1) Adjusted for 80% content of BL-S643.
(§5) ^(2) Adjusted for 59% content of BL-S643.
(§6) In other words, the numerical values are lowered, i.e. improved. This

Str. pyogenes A9604 = assay: Antibiotic spectrum in nutrient broth (MIC); type: cell-based; conditions: Streptococcus pyogenes, 10^-3 dilution of overnight broth culture, 45% AAB + serum + 50% broth, BL-S1057/BL-S1058 adjusted for 80%/59% content of BL-S643
Text: as §1, §2, §3, §4, §5, §6

[1] = Paper chromatograms of rat urine after IM administration (antibiotically active metabolites); type: in vivo; conditions: urine 0-2 and 2-4 hours; for Antibiotically active metabolites in rat urine (spots on paper chromatogram): descending chromatography system No. 9
Protocol: Paper chromatograms were run on rat urine collected between 0 and 2 and between 2 and 4 hours following IM administration of BL-S1057, 1058 and 643, for the detection of antibiotically active metabolites using descending chromatography with system No. 9 (butyl acetaten-butanol:glacial acetic acid:H2 O = 80:15:40:24).

Ps. aeruginosa A9843A = assay: Antibiotic spectrum in nutrient broth (MIC); type: cell-based; conditions: Pseudomonas aeruginosa
Text: as §1, §3, §4, §5, §6

E. coli A9675 = assay: Antibiotic spectrum in nutrient broth (MIC); type: cell-based; conditions: Escherichia coli, 10^-4 dilution, BL-S1057/BL-S1058 adjusted for 80%/59% content of BL-S643
Text: as §1, §3, §4, §5, §6

Ent. cloacae A9659 = assay: Antibiotic spectrum in nutrient broth (MIC); type: cell-based; conditions: Enterobacter cloacae, 10^-4 dilution, BL-S1057/BL-S1058 adjusted for 80%/59% content of BL-S643
Text: as §1, §3, §4, §5, §6

S. aureus Smith A9537 = assay: Antibiotic spectrum in nutrient broth (MIC); type: cell-based; conditions: Staphylococcus aureus, 10^-4 dilution, BL-S1057/BL-S1058 adjusted for 80%/59% content of BL-S643
Text: as §1, §3, §4, §5, §6

S. aureus BX1633 A9606 = assay: Antibiotic spectrum in nutrient broth (MIC); type: cell-based; conditions: Staphylococcus aureus, BX1633A9606, nutrient broth, BL-S1057/BL-S1058 adjusted for 80%/59% content of BL-S643
Text: as §1, §3, §4, §5, §6

Pr. morganii A15153 = assay: Antibiotic spectrum in nutrient broth (MIC); type: cell-based; conditions: Morganella morganii, 10^-4 dilution, BL-S1057/BL-S1058 adjusted for 80%/59% content of BL-S643
Text: as §1, §3, §4, §5, §6

Ent. cloacae A9657 = assay: Antibiotic spectrum in nutrient broth (MIC); type: cell-based; conditions: Enterobacter cloacae, 10^-4 dilution, BL-S1057/BL-S1058 adjusted for 80%/59% content of BL-S643
Text: as §1, §3, §4, §5, §6

Ser. marcescens A20019 = assay: Antibiotic spectrum in nutrient broth (MIC); type: cell-based; conditions: Serratia marcescens, 10^-4 dilution, BL-S1057/BL-S1058 adjusted for 80%/59% content of BL-S643
Text: as §1, §3, §4, §5, §6

Ent. cloacae A9656 = assay: Antibiotic spectrum in nutrient broth (MIC); type: cell-based; conditions: Enterobacter cloacae, 10^-4 dilution, BL-S1057/BL-S1058 adjusted for 80%/59% content of BL-S643
Text: as §1, §3, §4, §5, §6

Sal. enteritidis A9531 = assay: Antibiotic spectrum in nutrient broth (MIC); type: cell-based; conditions: Salmonella enterica, 10^-4 dilution, BL-S1057/BL-S1058 adjusted for 80%/59% content of BL-S643
Text: as §1, §3, §4, §5, §6

Pr. mirabilis A9900 = assay: Antibiotic spectrum in nutrient broth (MIC); type: cell-based; conditions: Proteus mirabilis, 10^-4 dilution, BL-S1057/BL-S1058 adjusted for 80%/59% content of BL-S643
Text: as §1, §3, §4, §5, §6

[2] = system: S. aureus Meth-Res A15097; assay: Antibiotic spectrum in nutrient broth (MIC); type: cell-based; conditions: Staphylococcus aureus, 10^-3 dilution, BL-S1057/BL-S1058 adjusted for 80%/59% content of BL-S643
Text: as §1, §3, §4, §5, §6

K. pneumoniae A9977 = assay: Antibiotic spectrum in nutrient broth (MIC); type: cell-based; conditions: Klebsiella pneumoniae, 10^-4 dilution, BL-S1057/BL-S1058 adjusted for 80%/59% content of BL-S643
Text: as §1, §3, §4, §5, §6

K. pneumoniae A15130 = assay: Antibiotic spectrum in nutrient broth (MIC); type: cell-based; conditions: Klebsiella pneumoniae, 10^-4 dilution, BL-S1057/BL-S1058 adjusted for 80%/59% content of BL-S643
Text: as §1, §3, §4, §5, §6

E. coli Juhl A15119 = assay: Antibiotic spectrum in nutrient broth (MIC); type: cell-based; conditions: Escherichia coli, JUHLA15119, 10^-4 dilution, BL-S1057/BL-S1058 adjusted for 80%/59% content of BL-S643
Text: as §1, §3, §4, §5, §6

[3] = Bio-assay (using cefatrizine as the standard); type: cell-based
Text: a. Bio-assay (using cefatrizine as the standard) = 759 mcg./mg.
a. Bio-assay (using cefatrizine as the standard) = 685 mcg./mg.

[4] = Liquid chromatography, % hydrolyzed in buffer; type: physicochemical; conditions: 1 mg./ml.
Protocol: f. Liquid chromatography = 100% hydrolyzed in pH 6.1 buffer within 1 hour at room temperature (concentration = 1 mg./ml.)
d. Liquid chromatography (1 mg./ml. in pH 6 buffer)

[5] = Paper strip chromatography (hydrolysis to BL-S643); type: physicochemical; conditions: 0 and 1 hour at 37° C.; 0.2 mg./ml.
Solubility in water = type: physicochemical
Protocol: d. Solubility = >400 mg./ml. in water

[6] = SMITHA9537, nutrient broth +50% serum
[7] = SMITHA9537, nutrient broth, no serum

Row | Structure (SMILES) | MIC (S. pneumoniae A9585) [µg/mL] | MIC (Str. pyogenes A9604) [µg/mL] | Antibiotically active metabolites in rat urine (spots on paper chromatogram) [1] | MIC (Ps. aeruginosa A9843A) [µg/mL] | MIC (E. coli A9675) [µg/mL] | MIC (Ent. cloacae A9659) [µg/mL] | MIC (S. aureus Smith A9537; [6]) [µg/mL] | MIC (S. aureus Smith A9537; [7]) [µg/mL] | MIC (S. aureus BX1633 A9606; 10^-2 dilution) [µg/mL] | MIC (S. aureus BX1633 A9606; 10^-3 dilution) [µg/mL] | MIC (Pr. morganii A15153) [µg/mL] | MIC (Ent. cloacae A9657) [µg/mL] | MIC (Ser. marcescens A20019) [µg/mL] | MIC (Ent. cloacae A9656) [µg/mL] | MIC (Sal. enteritidis A9531) [µg/mL] | MIC (Pr. mirabilis A9900) [µg/mL] | MIC [2] [µg/mL] | MIC (K. pneumoniae A9977) [µg/mL] | MIC (K. pneumoniae A15130) [µg/mL] | MIC (E. coli Juhl A15119) [µg/mL] | further results
1 | Cc1nnc(SCC2=C(C(=O)O)N3C(=O)C(NC(=O)[C@H](N)c4ccc(O)cc4)C3SC2)s1 (some centres unmarked) [BL-S643, reference compound] | 0.03 | 0.016 | A single, identical spot | > 125 | 4 (≈ 8.1 µM) | 32 (≈ 64.8 µM) | 8 (≈ 16.2 µM) | 0.5 (≈ 1.01 µM) | 4 (≈ 8.1 µM) | 1 (≈ 2.03 µM) | 16 (≈ 32.4 µM) | 4 (≈ 8.1 µM) | 125 (≈ 253 µM) | > 125 | 0.25 (≈ 0.506 µM) | 0.5 (≈ 1.01 µM) | 4 (≈ 8.1 µM) | 0.5 (≈ 1.01 µM) | 4 (≈ 8.1 µM) | 1 (≈ 2.03 µM) | 
2 | Cc1nnc(SCC2=C(C(=O)O)N3C(=O)C(N4C(=O)[C@@H](c5ccc(O)cc5)NC4c4ccco4)C3SC2)s1 (some centres unmarked) [BL-S1057] | 0.016 | 0.008 | A single, identical spot | > 125 | 4 (≈ 7 µM) | 16 (≈ 28 µM) | 8 (≈ 14 µM) | 0.5 (≈ 0.875 µM) | 4 (≈ 7 µM) | 1 (≈ 1.75 µM) | 16 (≈ 28 µM) | 0.5 (≈ 0.875 µM) | 125 (≈ 219 µM) | > 125 | 0.25 (≈ 0.437 µM) | 0.5 (≈ 0.875 µM) | 2 (≈ 3.5 µM) | 0.5 (≈ 0.875 µM) | 4 (≈ 7 µM) | 1 (≈ 1.75 µM) | Bio-assay [3]: 759 µg/mg; degraded at 1 h ([4]; within 1 hour, pH 6.1 buffer, room temperature): 100%; Hydrolysis to parent compound (BL-S643) [1]: complete hydrolysis; Paper strip chromatography zones [5]: Primarily 1 zone at Rf of BL-S643; solubility (Solubility in water): > 400 mg/mL
3 | Cc1nnc(SCC2=C(C(=O)O)N3C(=O)C(N4C(=O)[C@@H](c5ccc(O)cc5)NC4c4ccc(S(=O)(=O)O)o4)C3SC2)s1 (some centres unmarked) [BL-S1058] | 0.016 | 0.008 | A single, identical spot | > 125 | 2 (≈ 3.07 µM) | 16 (≈ 24.6 µM) | 8 (≈ 12.3 µM) | 0.25 (≈ 0.384 µM) | 4 (≈ 6.14 µM) | 0.5 (≈ 0.767 µM) | 16 (≈ 24.6 µM) | 0.5 (≈ 0.767 µM) | 125 (≈ 192 µM) | > 125 | 0.13 (≈ 0.199 µM) | 0.5 (≈ 0.767 µM) | 2 (≈ 3.07 µM) | 0.5 (≈ 0.767 µM) | 2 (≈ 3.07 µM) | 1 (≈ 1.53 µM) | Bio-assay [3]: 685 µg/mg; % Hydrolyzed ([4]; 0 hours, pH 6 buffer): 25.4%; degraded at 1 h ([4]; 1 hour, pH 6 buffer): 46.5%; degraded at 2 h ([4]; 2 hours, pH 6 buffer): 59%; Hydrolysis to parent compound (BL-S643) [1]: complete hydrolysis; Paper strip chromatography zones [5]: Primarily 1 zone at Rf of BL-S643; also recorded: evidence of a second zone
